The target of series [1] is Histamine H2 receptor (Homo sapiens) (UniProt P25021). Description: Displacement of [125I]Aminopotentidine from human recombinant histamine H2 receptor expressed in CHOK1 cells at 10 uM after 2 hrs relative to control. It is filed as cell-based. The settings on record: CHO-K1. In general terms: Loss of bound radioactivity is the signal in a displacement assay; it reports binding, not function.

For series [2], the target named is Adenosine receptor A3 (Homo sapiens) (UniProt P0DMS8). The conditions noted are these: CHO-K1, 10 uM.
In series [3] the target is B2 bradykinin receptor (Homo sapiens) (UniProt P30411). The conditions noted are these: CHEM1, 10 uM.
The species named for series [4] is Rattus norvegicus. Description: Displacement of [3H]Kainic acid from kainate receptor in Wistar rat brain at 10 uM after 60 mins relative to control.
The target in series [5] is T1, Glutamate NMDA receptor (Rattus norvegicus) (UniProt P35439+Q00959+Q00960+Q00961+Q62645+Q8VHN2+Q9R1M7). The conditions noted are these: Wistar, Cerebral cortex, 10 uM.
Series [6] addresses T1, Glutamate NMDA receptor (Rattus norvegicus). The settings on record: Wistar, Cerebral cortex, 10 uM. The source holds these as a separate data set.
For series [7] the target is unchanged. As to the kind of experiment: Displacement of [3H]MDL105519 from NMDA receptor glycine binding site in Wistar rat cerebral cortex at 10 uM after 30 mins relative to control. The format is tissue-based.
Another series deals with Glutamate NMDA receptor. As to the kind of experiment: Displacement of [3H]MDL105519 from NMDA receptor glycine binding site in Wistar rat cerebral cortex after 30 mins. The format is tissue-based.
The target in series [8] is B1 bradykinin receptor (Homo sapiens) (UniProt P46663). Description: Displacement of [3H](Des-Arg10)-Kallidin from bradykinin B1 receptor in human IMR90 cells at 10 uM after 60 mins relative to control. It is filed as cell-based. The settings on record: IMR-90.
Series [9] is described as follows: Chemical stability in DMSO after 48 hrs. The format is physicochemical. The conditions noted are these: read-out: Stability.
Series [10] can be described thus: Cytotoxicity against human CSC-like HMLE cells expressing shRNA and epithelial cadherin after 70 to 74 hrs by Cell Titer Glo assay. It is filed as functional, cell-based. Background: ATP-based viability assays read luminescence as a measure of living cells.
Series [11] is described as follows: Solubility in PBS at 100 uM after 24 hrs at pH 7.4 by UPLC-MS analysis. The format is physicochemical.
Series [12] in a line: Cytotoxicity against human HMLE cells expressing shRNA and GFP after 70 to 74 hrs by Cell Titer Glo assay. It is filed as cell-based.
A short description of series [13]: Metabolic stability in human plasma after 5 hrs. The format is ADME, cell-free. The conditions noted are these: read-out: Stability.
The nature of series [14]: Plasma protein binding in human. The settings on record: read-out: PPB (converted). It is filed as ADME, cell-free.
The nature of series [15]: Selectivity ratio of EC50 for human HMLE cells expressing shRNA and GFP to EC50 for human CSC-like HMLE cells expressing shRNA and epithelial cadherin. It is filed as ADME, cell-based. The settings on record: read-out: Ratio EC50.
Series [16] can be described thus: Chemical stability of the compound after 48 hrs in presence of GSH. The format is physicochemical. The conditions noted are these: read-out: Stability.
Series [17] can be described thus: Chemical stability of the compound in PBS after 48 hrs at pH 7.4 by UPLC/MS analysis. The format is physicochemical. The conditions noted are these: read-out: Stability.
Series [18] deals with Adenosine receptor A1 (Homo sapiens) (UniProt P30542). The conditions noted are these: CHO, 10 uM.
For series [19], the target named is Muscarinic acetylcholine receptor M1 (Homo sapiens) (UniProt P11229). Description: Displacement of [3H]N-methylscopolamine from human recombinant muscarinic M1 receptor expressed in CHOK1 cells at 10 uM after 2 hrs relative to control. The conditions noted are these: CHO-K1. The format is cell-based.
The target of series [20] is Muscarinic acetylcholine receptor M1 (Homo sapiens, UniProt P11229). As to the kind of experiment: Displacement of [3H]N-methylscopolamine from human recombinant muscarinic M1 receptor expressed in CHOK1 cells after 2 hrs. The format is cell-based, CHO-K1.
Series [21] has as its target Muscarinic acetylcholine receptor M2 (Homo sapiens) (UniProt P08172). The conditions noted are these: CHO-K1, 10 uM.
Series [22] addresses Muscarinic acetylcholine receptor M3 (Homo sapiens) (UniProt P20309). The settings on record: CHO-K1, 10 uM.
The nature of series [23]: Displacement of [125I]omega-Conotoxin GVIA from N-type calcium channel in Wistar rat frontal brain after 30 mins.
For series [24], the species on record is Rattus norvegicus. Description: Displacement of [125I]omega-Conotoxin GVIA from N-type calcium channel in Wistar rat frontal brain at 10 uM after 30 mins relative to control.
Series [25] deals with D(4) dopamine receptor (Homo sapiens) (UniProt P21917). The conditions noted are these: CHO-K1, 10 uM.
Series [26] concerns the target D(2) dopamine receptor (Homo sapiens) (UniProt P14416). The conditions noted are these: CHO, 10 uM.
Series [27] has as its target Gamma-aminobutyric acid type B receptor subunit 1 (Homo sapiens) (UniProt Q9UBS5). As to the kind of experiment: Displacement of [3H]CGP54626 from human recombinant GABAB1A receptor expressed in CHO cells at 10 uM after 3 hrs relative to control. The format is cell-based.
The species named for series [28] is Rattus norvegicus. As to the kind of experiment: Displacement of [3H]Nitrendipine from L-type calcium channel dihydropyridine binding site in Wistar rat cerebral cortex at 10 uM after 90 mins relative to control. The format is tissue-based.
Series [29] is described as follows: Displacement of [3H]Nitrendipine from L-type calcium channel dihydropyridine binding site in Wistar rat cerebral cortex after 90 mins. It is filed as tissue-based.

Converted amounts (≈) assume the structure as drawn.

Sequence of B2 bradykinin receptor (Homo sapiens) (P30411 whole entry): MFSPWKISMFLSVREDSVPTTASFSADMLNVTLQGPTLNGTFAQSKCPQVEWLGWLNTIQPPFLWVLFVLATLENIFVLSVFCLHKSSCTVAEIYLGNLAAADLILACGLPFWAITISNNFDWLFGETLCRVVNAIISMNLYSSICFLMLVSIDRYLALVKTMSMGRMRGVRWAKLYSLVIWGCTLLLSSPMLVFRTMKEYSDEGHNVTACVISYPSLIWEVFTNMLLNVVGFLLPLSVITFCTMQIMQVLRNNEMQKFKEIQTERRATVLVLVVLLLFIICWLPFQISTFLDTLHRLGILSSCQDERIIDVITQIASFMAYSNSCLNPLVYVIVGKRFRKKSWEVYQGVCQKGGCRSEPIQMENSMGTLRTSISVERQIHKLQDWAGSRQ
Sequence of B1 bradykinin receptor (Homo sapiens) (P46663 whole entry): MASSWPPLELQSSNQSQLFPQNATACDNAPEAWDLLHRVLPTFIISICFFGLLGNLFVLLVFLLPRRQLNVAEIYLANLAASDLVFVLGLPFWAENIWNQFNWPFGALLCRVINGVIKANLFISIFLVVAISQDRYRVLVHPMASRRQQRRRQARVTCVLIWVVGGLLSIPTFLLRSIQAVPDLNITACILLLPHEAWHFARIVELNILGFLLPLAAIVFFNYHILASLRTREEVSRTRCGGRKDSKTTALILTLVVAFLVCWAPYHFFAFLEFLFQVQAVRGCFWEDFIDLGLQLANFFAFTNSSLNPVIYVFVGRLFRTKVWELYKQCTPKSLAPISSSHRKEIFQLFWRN
Sequence of D(2) dopamine receptor (Homo sapiens) (P14416 whole entry): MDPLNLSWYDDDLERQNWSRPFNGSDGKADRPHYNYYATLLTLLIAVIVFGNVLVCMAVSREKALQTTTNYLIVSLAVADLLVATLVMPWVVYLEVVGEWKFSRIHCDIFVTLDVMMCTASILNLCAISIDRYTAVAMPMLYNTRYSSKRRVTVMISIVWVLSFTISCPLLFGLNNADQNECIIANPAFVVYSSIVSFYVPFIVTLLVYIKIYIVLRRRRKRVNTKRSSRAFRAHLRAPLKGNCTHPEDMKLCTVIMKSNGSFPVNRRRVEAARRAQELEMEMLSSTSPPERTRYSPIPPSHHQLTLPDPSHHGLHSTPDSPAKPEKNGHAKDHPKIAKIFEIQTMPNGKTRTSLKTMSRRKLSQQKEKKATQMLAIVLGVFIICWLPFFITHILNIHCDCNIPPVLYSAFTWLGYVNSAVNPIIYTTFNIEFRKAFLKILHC
Sequence of Muscarinic acetylcholine receptor M2 (Homo sapiens) (P08172 whole entry): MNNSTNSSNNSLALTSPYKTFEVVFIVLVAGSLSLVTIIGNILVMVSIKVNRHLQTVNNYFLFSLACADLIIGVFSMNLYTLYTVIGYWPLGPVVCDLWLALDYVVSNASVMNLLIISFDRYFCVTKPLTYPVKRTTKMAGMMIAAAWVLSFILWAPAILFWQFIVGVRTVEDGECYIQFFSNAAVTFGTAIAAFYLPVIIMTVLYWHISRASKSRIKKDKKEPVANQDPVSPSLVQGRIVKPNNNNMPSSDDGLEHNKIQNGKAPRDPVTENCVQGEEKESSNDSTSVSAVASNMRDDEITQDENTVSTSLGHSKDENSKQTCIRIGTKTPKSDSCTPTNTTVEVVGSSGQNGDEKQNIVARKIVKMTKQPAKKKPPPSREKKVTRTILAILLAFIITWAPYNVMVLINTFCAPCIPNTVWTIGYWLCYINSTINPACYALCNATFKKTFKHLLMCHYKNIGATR
Sequence of D(4) dopamine receptor (Homo sapiens) (P21917 whole entry): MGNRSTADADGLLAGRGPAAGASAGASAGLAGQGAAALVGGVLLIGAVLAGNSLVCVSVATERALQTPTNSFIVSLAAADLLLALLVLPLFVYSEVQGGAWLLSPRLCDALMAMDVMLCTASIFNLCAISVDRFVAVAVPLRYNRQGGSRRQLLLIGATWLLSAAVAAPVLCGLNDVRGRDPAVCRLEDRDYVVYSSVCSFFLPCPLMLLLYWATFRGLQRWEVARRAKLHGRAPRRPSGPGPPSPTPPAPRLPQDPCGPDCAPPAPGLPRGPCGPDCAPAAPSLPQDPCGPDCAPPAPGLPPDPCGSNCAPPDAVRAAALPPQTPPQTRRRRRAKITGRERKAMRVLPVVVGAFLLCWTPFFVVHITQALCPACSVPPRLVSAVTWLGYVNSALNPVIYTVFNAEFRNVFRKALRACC
Sequence of Muscarinic acetylcholine receptor M3 (Homo sapiens) (P20309 whole entry, looked up): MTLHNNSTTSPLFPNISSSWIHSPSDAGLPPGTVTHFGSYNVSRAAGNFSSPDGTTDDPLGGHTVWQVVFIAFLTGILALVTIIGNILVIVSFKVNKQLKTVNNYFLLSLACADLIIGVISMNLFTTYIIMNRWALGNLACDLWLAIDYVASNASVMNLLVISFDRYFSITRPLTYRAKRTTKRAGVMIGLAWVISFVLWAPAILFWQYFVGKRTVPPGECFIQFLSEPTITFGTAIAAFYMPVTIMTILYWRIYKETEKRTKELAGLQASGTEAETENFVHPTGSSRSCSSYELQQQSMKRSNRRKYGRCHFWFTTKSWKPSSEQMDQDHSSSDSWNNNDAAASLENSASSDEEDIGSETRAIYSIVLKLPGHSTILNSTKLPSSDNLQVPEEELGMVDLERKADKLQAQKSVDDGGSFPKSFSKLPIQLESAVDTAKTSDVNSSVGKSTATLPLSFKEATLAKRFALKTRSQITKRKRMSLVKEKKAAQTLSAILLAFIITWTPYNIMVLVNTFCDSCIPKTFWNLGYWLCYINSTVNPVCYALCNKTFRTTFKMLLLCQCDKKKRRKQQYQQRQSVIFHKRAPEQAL
Sequence of Adenosine receptor A3 (Homo sapiens) (P0DMS8 whole entry): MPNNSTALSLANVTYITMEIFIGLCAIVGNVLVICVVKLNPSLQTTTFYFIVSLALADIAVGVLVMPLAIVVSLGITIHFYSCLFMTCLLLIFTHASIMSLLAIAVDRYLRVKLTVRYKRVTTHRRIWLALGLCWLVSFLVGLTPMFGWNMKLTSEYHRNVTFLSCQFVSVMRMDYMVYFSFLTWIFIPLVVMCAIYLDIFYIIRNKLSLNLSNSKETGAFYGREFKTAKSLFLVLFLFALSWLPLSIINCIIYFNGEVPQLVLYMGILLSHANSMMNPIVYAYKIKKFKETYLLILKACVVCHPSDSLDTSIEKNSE
Sequence of Adenosine receptor A1 (Homo sapiens) (P30542 whole entry): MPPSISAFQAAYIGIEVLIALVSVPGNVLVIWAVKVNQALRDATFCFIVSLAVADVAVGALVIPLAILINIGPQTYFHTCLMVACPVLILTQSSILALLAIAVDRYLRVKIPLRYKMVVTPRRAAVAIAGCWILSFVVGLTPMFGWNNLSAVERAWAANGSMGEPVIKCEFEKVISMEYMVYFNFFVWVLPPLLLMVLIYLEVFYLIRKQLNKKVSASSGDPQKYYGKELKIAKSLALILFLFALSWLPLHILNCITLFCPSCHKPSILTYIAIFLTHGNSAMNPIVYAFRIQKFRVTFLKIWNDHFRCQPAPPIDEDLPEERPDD
Sequence of Histamine H2 receptor (Homo sapiens) (P25021 whole entry): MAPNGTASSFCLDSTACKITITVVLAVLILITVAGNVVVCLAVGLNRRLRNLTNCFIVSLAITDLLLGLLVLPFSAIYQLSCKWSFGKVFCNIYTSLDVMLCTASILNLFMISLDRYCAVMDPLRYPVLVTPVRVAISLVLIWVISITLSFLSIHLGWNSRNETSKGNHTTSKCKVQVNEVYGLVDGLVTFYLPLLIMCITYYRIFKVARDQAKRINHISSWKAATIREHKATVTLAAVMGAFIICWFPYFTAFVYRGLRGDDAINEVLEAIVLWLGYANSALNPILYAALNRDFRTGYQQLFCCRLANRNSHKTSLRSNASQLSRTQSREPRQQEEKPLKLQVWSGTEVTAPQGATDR
Sequence of Gamma-aminobutyric acid type B receptor subunit 1 (Homo sapiens) (Q9UBS5 whole entry): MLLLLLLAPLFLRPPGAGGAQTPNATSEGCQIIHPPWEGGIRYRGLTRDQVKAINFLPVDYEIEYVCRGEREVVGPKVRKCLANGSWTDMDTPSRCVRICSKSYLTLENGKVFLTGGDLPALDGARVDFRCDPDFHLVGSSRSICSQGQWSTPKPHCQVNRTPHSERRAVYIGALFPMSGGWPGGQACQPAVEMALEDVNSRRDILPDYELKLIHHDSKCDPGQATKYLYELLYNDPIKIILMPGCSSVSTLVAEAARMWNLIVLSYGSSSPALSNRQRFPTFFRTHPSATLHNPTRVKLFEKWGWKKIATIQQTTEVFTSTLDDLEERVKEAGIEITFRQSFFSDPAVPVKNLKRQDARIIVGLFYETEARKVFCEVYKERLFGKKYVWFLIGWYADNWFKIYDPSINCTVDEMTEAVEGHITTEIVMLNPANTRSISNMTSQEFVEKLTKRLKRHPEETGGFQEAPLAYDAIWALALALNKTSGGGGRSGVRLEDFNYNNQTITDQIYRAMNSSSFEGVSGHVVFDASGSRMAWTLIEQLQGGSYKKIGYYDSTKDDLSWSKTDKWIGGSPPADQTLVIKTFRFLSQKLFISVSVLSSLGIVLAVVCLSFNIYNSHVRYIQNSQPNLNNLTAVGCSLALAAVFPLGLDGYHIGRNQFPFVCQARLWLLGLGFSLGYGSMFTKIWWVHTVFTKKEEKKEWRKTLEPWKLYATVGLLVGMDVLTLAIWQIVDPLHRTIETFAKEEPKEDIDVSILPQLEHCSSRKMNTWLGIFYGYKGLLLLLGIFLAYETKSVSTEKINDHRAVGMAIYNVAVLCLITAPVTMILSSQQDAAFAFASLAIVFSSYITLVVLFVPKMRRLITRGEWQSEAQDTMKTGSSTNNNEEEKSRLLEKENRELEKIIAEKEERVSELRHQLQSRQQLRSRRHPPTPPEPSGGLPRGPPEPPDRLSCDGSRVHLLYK

With `C/N=C(/NC#N)NCCSCc1csc(NC(=N)N)n1`, in series [1], the inhibition (in general, the change of the read-out against control, counted positive when it falls) turned out to be 11%.
Take `CNC(=O)[C@H]1O[C@@H](n2cnc3c(NCc4cccc(I)c4)ncnc32)[C@H](O)[C@@H]1O`: the inhibition in [2] was found to be 22%.
As to H-RPPGFSPFR-OH, the inhibition in series [3] is 4%.
As for `N[C@@H](CCC(=O)O)C(=O)O`, the inhibition stood at 0% in the series listed under Rattus norvegicus [4] and 10% in series [5].
Regarding `C[C@@]12NC(Cc3ccccc31)c1ccccc12`, in series [6], the inhibition turned out to be 1%.
As to `O=C(O)/C(=C/c1c(C(=O)O)[nH]c2cc(Cl)cc(Cl)c12)c1ccccc1`, the inhibition in [7] was -3%. Besides, at Glutamate NMDA receptor, the IC50 (as a rule, the concentration that gives 50% inhibition) came to 22 nM and the Ki (commonly a measure of affinity in units of concentration, obtained from inhibition or displacement) was determined as 21 nM.
On to `NCCCC[C@H](N)C(=O)N[C@@H](CCCN=C(N)N)C(=O)N1CCC[C@H]1C(=O)N1CCC[C@H]1C(=O)NCC(=O)N[C@@H](Cc1ccccc1)C(=O)N[C@@H](CO)C(=O)N1CCC[C@H]1C(=O)N[C@@H](Cc1ccccc1)C(=O)O`, for which the inhibition in [8] was 8%.
Take `CCc1ccc(/C=C/C(=O)NC2=NCCS2)cc1`: the remaining at 48 h in series [9] was > 75%; in series [16] it was 82%; in series [17], 75%. The EC50 – broadly, the midpoint of the concentration-response curve – worked out at 2000 nM in series [10] and 64000 nM in [12]. Also, the solubility (in general, the concentration that dissolves in the medium under given conditions) at 24 h, 100 µM in [11] was found to be 11.5 µM (≈ 2.99 µg/mL). Moreover, the remaining at 5 h in series [13] was 97.1%. Besides, in series [14], the fraction unbound is 0.034. For the same compound, the selectivity ratio in series [15] turned out to be 32.
As for `C[C@H](Cc1ccccc1)Nc1ncnc2c1ncn2[C@@H]1O[C@H](CO)[C@@H](O)[C@H]1O`, in series [18], the inhibition came to 25%.
As for `C[N+]1(C)CCC(OC(=O)C(c2ccccc2)c2ccccc2)CC1` [4-DAMP], the figures for the inhibition in [19], in series [21] and in series [22] were 5%, -2% and -4%, respectively. Moreover, in series [20], the IC50 came out at 4.5 nM.
For `C[C@@H](O)[C@@H]1NC(=O)[C@H](Cc2ccc(O)cc2)NC(=O)[C@@H]2C[C@@H](O)CN2C(=O)[C@H](CC(N)=O)NC(=O)[C@@H]2CSSC[C@@H]3NC(=O)[C@H](CO)NC(=O)[C@H](CO)NC(=O)CNC(=O)[C@@H]4C[C@@H](O)CN4C(=O)[C@H](CO)NC(=O)[C@H](CCCCN)NC(=O)[C@@H](N)CSSC[C@H](NC(=O)[C@H](CSSC[C@@H](C(=O)N[C@@H](Cc4ccc(O)cc4)C(N)=O)NC(=O)[C@H](CCCNC(=N)N)NC(=O)[C@H](CCCCN)NC1=O)NC(=O)[C@H](CC(N)=O)NC(=O)[C@H](Cc1ccc(O)cc1)NC(=O)[C@H](CO)NC(=O)[C@H]([C@@H](C)O)NC(=O)[C@@H]1C[C@@H](O)CN1C(=O)[C@H](CO)NC3=O)C(=O)N[C@@H](CCCNC(=N)N)C(=O)N[C@@H](CO)C(=O)N2`, in [23], the IC50 is 0.034 nM and the Ki turned out to be 0.028 nM. For the same compound, the inhibition in the series listed under Rattus norvegicus [24] is 14%.
On to `O=C(CCCN1CCC2(CC1)C(=O)NCN2c1ccccc1)c1ccc(F)cc1`, for which the inhibition in series [25] and in series [26] was -3% throughout.
Turning to `C[C@H](NC[C@H](O)CP(=O)(O)CC1CCCCC1)c1ccc(Cl)c(Cl)c1`, the inhibition in [27] came out at 1%.
On to `CCOC(=O)C1=C(C)NC(C)=C(C(=O)OC)C1c1cccc([N+](=O)[O-])c1` (stereo not drawn) [NITRENDIPINE], for which, in the series listed under Rattus norvegicus [28], the inhibition is -6%. In addition, in series [29], the IC50 stood at 0.72 nM and the Ki is 0.46 nM.

Values taken from ChEMBL document CHEMBL2390918, “Cinnamides as selective small-molecule inhibitors of a cellular model of breast cancer stem cells” (Bioorg Med Chem Lett, 2013).
